Patent US12128047B2, “TLR7 agonist and pharmaceutical combination thereof for treating lung cancer” (CHIA TAI TIANQING PHARMACEUTICAL GROUP CO., LTD., priority 2018, dated 2024)

System: LLC (Lewis Lung Cancer) tumor
Experiment: Antitumor experiment in LLC mouse model (subcutaneous xenograft LLC tumor)
Format: in vivo, C57BL/6 mice
Conditions: i.g.; for TV (mm^3) on day 0 Mean ± SD: day 0 (grouping, before dosing from day 1); for TGI (%): from tumor weight on day 15 vs control group
Method: In Example 1, the TLR7 agonist was
[drawing 58] and anlotinib was anlotinib dihydrochloride.
LLC (Lewis Lung Cancer) Mice: subcutaneously grafted tumor cells of lung cancer (concentration: 2×10^6/mL×0.2 mL/mouse) were inoculated into C57BL/6 mice at the right side armpit (the site to be inoculated was shaved before inoculating) in a sterile environment, and passaged using a block insertion method. The C57BL/6 mice were female and 16-18 g in weight, and the breeding environment was SPF level. The diameter of the C57BL/6 xenograft tumor was measured using a vernier caliper, and the animals were randomly divided into five groups when the tumors grew to 100-300 mm^3: • i. Control group (blank control); • ii. Monotherapy group: anlotinib 5 mg/kg/d (positive control), with normal saline as a vehicle; • iii. Monotherapy group: TLR7 agonist 20 mg/kg, t.i.w., with ethanol/Tween 80 (v:v=1:1) as a vehicle; • iv. Monotherapy group: anlotinib 1 mg/kg/d, with normal saline as a vehicle; and • v. Combination therapy group: TLR7 agonist 20 mg/kg, t.i.w., and anlotinib 1 mg/kg/d.
The mice in the control group and monotherapy groups were administered in a volume of 10 mL/kg, and the mice in the combination therapy group were administered with two drugs simultaneously, each in a volume of 10 mL/kg. Weights and diameter of the tumor were measured every three days, and the behavior of mice was observed daily.
Mice were divided into groups on day 0, with 12 in the control group and 6 in each of the remaining groups. The drugs were administered intragastrically (i.g.) from day 1. The treatment was discontinued on day 12. During the experiment, the tumor volume was measured on days 0, 3, 6, 9, 12 and 15, and the tumors were removed and weighed on day 15, i.e., at the end of experiment.
The tumor volume and the tumor growth inhibition were calculated using the following formulae: Tumor volume (TV)=(L×W^2)/2. Tumor growth inhibition (TGI)=(1−tumor weight in the treatment group/tumor weight in the control group)×100%.

Row | Compound | TV (mm^3) on day 0 Mean ± SD (anlotinib 1 mg/kg/d × 11 d) | TV (mm^3) on day 12 Mean ± SD (anlotinib 1 mg/kg/d × 11 d) | TV (mm^3) on day 15 Mean ± SD (anlotinib 1 mg/kg/d × 11 d) | TGI (%) (anlotinib 1 mg/kg/d × 11 d) | TV (mm^3) on day 0 Mean ± SD (anlotinib 5 mg/kg/d × 11 d, female C57BL/6 mice with LLC tumor) | TV (mm^3) on day 12 Mean ± SD (anlotinib 5 mg/kg/d × 11 d) | TV (mm^3) on day 15 Mean ± SD (anlotinib 5 mg/kg/d × 11 d) | TGI (%) (anlotinib 5 mg/kg/d × 11 d) | TV (mm^3) on day 0 Mean ± SD (TLR7 agonist 20 mg/kg, t.i.w.) | TV (mm^3) on day 12 Mean ± SD (TLR7 agonist 20 mg/kg, t.i.w.) | TV (mm^3) on day 15 Mean ± SD (TLR7 agonist 20 mg/kg, t.i.w.) | TGI (%) (TLR7 agonist 20 mg/kg, t.i.w.) | growth of LLC tumor (result in words) (TLR7 agonist alone, 20 mg/kg, t.i.w., summary of Table 1)
1 | COc1cc2c(Oc3ccc4[nH]c(C)cc4c3F)ccnc2cc1OCC1(N)CC1 [Anlotinib, 1-[[[4-(4-fluoro-2-methyl-1H-indol-5-yl)oxy-6-methoxyquinolin-7-yl]oxy]methyl]cyclopropylamine] | 213.25 ± 39.34 mm^3 | 2697.21 ± 747.99 mm^3 | 4114.08 ± 1213.40 mm^3 | 13.5% | 213.47 ± 38.16 mm^3 | 1393.38 ± 532.59 mm^3 | 1811.75 ± 736.45 mm^3 | 63.4% | – | – | – | – | –
2 | CCCCOc1nc(N)c2[nH]cc(Cc3ccc(CN4CCCC4)cc3)c2n1 [TLR7 agonist] | – | – | – | – | – | – | – | – | 212.98 ± 47.17 mm^3 | 2353.68 ± 663.83 mm^3 | 3257.62 ± 577.45 mm^3 | 30.1% | can inhibit the growth of LLC tumor
